Laboratory results from US20250332141A1, “A PHARMACEUTICAL COMPOSITION COMPRISING AN INHIBITOR OF GLUTAMINE SYNTHETASE ENZYME TO COMBAT ARTEMISININ RESISTANCE IN MALARIA” (Institute of Life Sciences, priority 2022, published 2025).
Like-named read-outs stand apart in the source and are kept apart here.

How the values were obtained:
[1] = test system: ART-resistant PfCam3.I^R539T strain; experiment: Ring-stage survival assay (RSA) with ART-resistant strain; type: cell-based, Plasmodium falciparum
Procedure: PfCam3.I^R539T strain was maintained under standard conditions. When the parasitemia reached around 2% with predominant ring stages, the cultures were subjected to two rounds of tight synchronization within a span of 3 h in the previous cycle, followed by one additional synchronization in the subsequent cycle when they are in early rings. […] The medium change was carried out at 48 and 72 h, and after 96 h, the culture parasitemia was examined by Giemsa-stained smears and flow cytometry. For growth assessment by ^3H-hypoxanthine uptake, the label was added at 72 h and the cells were harvested at 96 h. The experiments were carried out independently in RPMI^-gln and RPMI^Pgln medium.

[2] = test system: eIF2α phosphorylation in Pf3D7 rings; conditions: 250 μM for 6 h, RPMI^-gln medium
Procedure: Pf3D7 cultures were subjected to two rounds of tight synchronization within a span of 3 h in the previous cycle, followed by one additional synchronization in the subsequent cycle immediately after RBC invasion.

[3] = test system: Pf clinical isolates; experiment: Inhibition studies with Pf clinical samples (3H-hypoxanthine uptake); type: cell-based, Plasmodium falciparum; conditions: in vitro cultures without or with glutamine; n=7 clinical isolates
Procedure: The collection of clinical samples was carried out by withdrawing blood from febrile patients. Pf infections were confirmed by examining Giemsa-stained thick and thin blood smears under light microscope, and by performing rapid diagnostic test and PCR for 18S rRNA. The infected blood was collected in heparinized vacutainers and the subsequent procedures were carried out in BSL-2 facility under sterile conditions. […] The packed cells were then resuspended in the same medium and the hematocrit was adjusted to 5%. The cultures were treated with different concentrations of MSO/PPT and ^3H-hypoxanthine addition was carried out after 3 h of MSO/PPT addition to assess the parasite growth. The cultures were incubated following the standard conditions of Pf maintenance and the experiments were performed for each clinical isolate in RPMI^-gln as well as in RPMI^Pgln. All these experiments were typically carried out in a final culture volume of 1.2 ml for the respective concentrations of MSO or PPT. Parasite growth assessment was also verified by examining the Giemsa-stained smears.

[4] = test system: Pf parasites; conditions: RPMI^-gln medium; 50 and 250 μM MSO, 12 h
Procedure: Parasite pellets were then extracted with 10 volumes of 50% methanol in water (v/v), followed by lyophilisation and solubilizing the lyophilized extracts with 50 μl of water. […] For LC-MS/MS, the parasite extracts were derivatized with 6-aminoquinolyl-N-hydroxysuccinimidyl carbamate (AQC), cleaned up with SPE and dried under vacuum, followed by reconstitution with 50 μl of 0.5% acetonitrile containing 0.1% formic acid. 10 μl of the sample was used for LC-MS/MS analysis carried out in Acquity C18 column (1.8 μm, 2.1 mm×100 mm) using Dionnex Ultimate3000 UHPLC system coupled with Q Exactive mass spectrometer (Thermo Fisher Scientific). Mobile phase consisted of Solvent A: 10 mM ammonium acetate containing 0.1% formic acid and solvent B: acetonitrile containing 0.1% formic acid. Mass spectrometry was performed under spray voltage of 4000/2500V with vaporizer temperature of 250° C., sheath gas and auxillary gas flow rate of 30 and 10 Arb, respectively. The acquisition was performed in Parallel Reaction Monitoring mode at 35000 resolution with a normalized collision energy of 25 eV. The calibration curves were prepared for the individual amino acids and the samples were spiked with internal standards containing deuterated amino acids.

[5] = test system: Pf protein synthesis; experiment: In vitro metabolic protein labelling with 35S-Methionine and Cysteine; type: cell-based; conditions: Plasmodium falciparum, 12 h treatment; for inhibition at 50 µM / inhibition at 250 µM: RPMI^-gln medium; for inhibition at 1000 µM: 1 mM, RPMI^Pgln medium
Procedure: After 9 h of radiolabelling, parasites were isolated by saponin lysis, resuspended in 50 mM Tris pH 8.0 containing 100 mM NaCl, 2% glycerol and 0.1% Triton X-100, and lysed by sonication. The lysates were resolved on 10% SDS-PAGE gel and phosphorimager scanning was carried out to examine the radiolabelling of proteins using Amersham Typhoon 5 Biomolecular Imager. In parallel, 10 μl of the lysates were spotted on Whatman filter paper grade I, dried and washed subsequently with hot and cold 10% (w/v) trichloroacetic acid to remove free amino acids and charged-tRNAs, followed by diethyl ether to remove lipids. The filter papers were then placed in Ultima Gold XR scintillation cocktail and the radioactive counts were measured using MicroBeta^2 Microplate Counters. All these experiments were performed with identical parasitemia and hematocrit between the untreated and treated groups by equally splitting the infected cultures.

[6] = test system: Pf asexual stages (Pf3D7 cultures); experiment: MSO and PPT inhibition of in vitro growth of Pf cultures; type: cell-based, Plasmodium falciparum; conditions: for IC50: Plasmodium falciparum, read-out: IC50 for inhibiting Pf growth
Procedure: The parasites were subcultured with fresh RBCs when the culture parasitemia reached around 2-5%. […] The isolated parasites were washed thoroughly with ice cold PBS for four times to remove the carry-over of proteins from RBC lysates. ART-resistant PfCam3.I^R539T strain was also maintained in a similar fashion. Giemsa-stained smears were routinely prepared to examine the parasite growth and parasitemia. Parasite growth assessment for experiments was carried out by Giemsa-stained smears, flow cytometry and ^3H-hypoxanthine uptake. […] The radioactive counts were measured using MicroBeta^2 Microplate Counters (PerkinElmer).

[7] = molecular target: T1, rPfGS (Plasmodium falciparum glutamine synthetase) (Plasmodium falciparum, UniProt C0H551); experiment: Recombinant PfGS enzyme assay (HPLC glutamine formation / Pi release) and inhibition; type: biochemical
T1 sequence (C0H551 1-543): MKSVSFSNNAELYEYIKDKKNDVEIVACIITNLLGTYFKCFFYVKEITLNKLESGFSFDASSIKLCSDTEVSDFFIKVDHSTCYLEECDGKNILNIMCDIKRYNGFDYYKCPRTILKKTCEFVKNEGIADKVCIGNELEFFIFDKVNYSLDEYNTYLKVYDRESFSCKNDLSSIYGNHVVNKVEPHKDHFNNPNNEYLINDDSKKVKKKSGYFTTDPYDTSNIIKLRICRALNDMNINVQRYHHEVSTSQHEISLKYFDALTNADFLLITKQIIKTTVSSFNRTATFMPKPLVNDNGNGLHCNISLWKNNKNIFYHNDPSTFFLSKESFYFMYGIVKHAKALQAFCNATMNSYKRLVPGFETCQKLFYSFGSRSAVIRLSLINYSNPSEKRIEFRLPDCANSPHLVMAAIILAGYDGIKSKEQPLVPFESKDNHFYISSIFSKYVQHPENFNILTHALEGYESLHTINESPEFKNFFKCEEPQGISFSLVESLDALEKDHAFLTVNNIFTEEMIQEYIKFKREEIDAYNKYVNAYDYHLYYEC
Procedure: (§1) Enzyme assays were carried out by performing HPLC analysis for glutamine formation as well as by quantifying the release of inorganic phosphate (Pi). The enzyme assays were carried out at 37° C. for 1 h in a total volume of 25 µl and the assay mixtures contained 50 mM Tris buffer pH 8.0 with 4 mM glutamate, 50 mM NaCl, 50 mM NH4Cl, 10 mM ATP and 50 mM MgCl2 and 0.5-1.0 μg of recombinant protein. The amino acids were extracted by vortexing the assay mixtures with 50 μl of water and 375 μl of acetonitrile, followed by incubation in ice for 30 min and centrifugation at 20,000 g for 20 min at 4° C. The supernatant was collected, lyophilized and dissolved in 50 μl of water. […] Mobile phase consisted of Solvent A: 10 mM Na2HPO4, and 10 mM Na2B4O7, pH 8.2 and solvent B: methanol: acetonitrile: water (45:45:10 v/v). […] For every molecule of glutamine formed, one molecule of ATP is hydrolysed to ADP and Pi. […] For Pi assays, the assay mixtures incubated at 37° C. for 1 h were diluted with water to 200 μl, followed by the addition of 30 μl of phosphate reagent of Phosphate Assay Kit (Abcam, ab65622). After vortexing, the absorbance was measured at 650 nm as per the manufacturer's protocol. Individual glutamate-and protein-omitted reactions were used as controls for all the assays.

[8] = substrate: N[C@@H](CCC(=O)O)C(=O)O; experiment: as above; type: biochemical, Plasmodium falciparum; conditions: other: Lineweaver-Burk plots; mean±SD, at least three different protein preparations
Procedure: as §1

[9] = substrate: Nc1ncnc2c1ncn2[C@@H]1O[C@H](COP(=O)(O)OP(=O)(O)OP(=O)(O)O)[C@@H](O)[C@H]1O; experiment: as above; type: biochemical, Plasmodium falciparum; conditions: other: Lineweaver-Burk plots; mean±SD, at least three different protein preparations
Procedure: as §1

[10] = substrate: N; experiment: as above; type: biochemical, Plasmodium falciparum; conditions: other: Lineweaver-Burk plots; mean±SD, at least three different protein preparations
Procedure: as §1

## C[C@@H]1CC[C@H]2[C@@H](C)C(=O)O[C@@H]3O[C@@]4(C)CC[C@@H]1[C@]32OO4 [ART, artemisinin]
[1]; 700 nM exposure for 6 h, PfCam3.I^R539T cultures, after 72 h
  viable parasites after exposure in RSA: resulted in viable parasites

## CS(=N)(=O)CC[C@H](N)C(=O)O (stereo partly drawn) [MSO, L-methionine sulfoximine]
[2]
  phosphorylation of eIF2α in Pf: prominent phosphorylation
[3]
  growth of Pf clinical samples: could inhibit the growth of Pf clinical samples to the extent that was observed for Pf3D7 strain
[4]
  free glutamine levels in treated Pf parasites with respect to untreated parasites: did not show a significant decrease
  reduction of free asparagine levels with respect to untreated control: 1.5-2.0 fold
[5]
  inhibition at 50 µM: 40 to 50%
  inhibition at 250 µM: ~80%
  inhibition at 1000 µM: ~50%
[6]
  IC50: ~30 µM
[1]; MSO alone for 6 h, PfCam3.I^R539T rings
  inhibition with respect to the untreated control: 10-20%

## CP(=O)(O)CCC(N)C(=O)O (centres unmarked) [PPT, Phosphinothricin]
[3]
  growth of Pf clinical samples: could inhibit the growth of Pf clinical samples to the extent that was observed for Pf3D7 strain
[7]
  Ki: 2.31 ± 1.1 µM
[5]
  inhibition at 50 µM: 40 to 50%
  inhibition at 250 µM: ~80%
  inhibition at 1000 µM: ~50%
[6]; RPMI medium lacking glutamine (RPMI^-gln)
  IC50: ~30 µM
[6]; RPMI medium containing physiological levels (0.5 mM) of glutamine (RPMI^Pgln)
  IC50 in RPMI^Pgln relative to IC50 in RPMI^-gln: ~10 times higher

B1: rPfGS (Plasmodium falciparum glutamine synthetase) (Plasmodium falciparum 3D7) (protein)
chain: MKSVSFSNNAELYEYIKDKKNDVEIVACIITNLLGTYFKCFFYVKEITLNKLESGFSFDASSIKLCSDTEVSDFFIKVDHSTCYLEECDGKNILNIMCDIKRYNGFDYYKCPRTILKKTCEFVKNEGIADKVCIGNELEFFIFDKVNYSLDEYNTYLKVYDRESFSCKNDLSSIYGNHVVNKVEPHKDHFNNPNNEYLINDDSKKVKKKSGYFTTDPYDTSNIIKLRICRALNDMNINVQRYHHEVSTSQHEISLKYFDALTNADFLLITKQIIKTTVSSFNRTATFMPKPLVNDNGNGLHCNISLWKNNKNIFYHNDPSTFFLSKESFYFMYGIVKHAKALQAFCNATMNSYKRLVPGFETCQKLFYSFGSRSAVIRLSLINYSNPSEKRIEFRLPDCANSPHLVMAAIILAGYDGIKSKEQPLVPFESKDNHFYISSIFSKYVQHPENFNILTHALEGYESLHTINESPEFKNFFKCEEPQGISFSLVESLDALEKDHAFLTVNNIFTEEMIQEYIKFKREEIDAYNKYVNAYDYHLYYEC
[8]
  Km: 730 ± 210 µM
[9]
  Km: 750 ± 140 µM
[10]
  Km: 530 ± 180 µM
